The subject of the experiment is generation of leukotriene C4 (LT) from sliced lung of guinea pig. Description: Effect on generation of leukotriene C4 from sliced lung of guinea pig (passively sensitized, ovalbumin challenge). It counts as cell-based, guinea pig (male Hartley). The settings on record: 3 μM test compound, 10 min preincubation, ovalbumin 10 μg/ml, 15 min, 37° C.; for inhibition at 3 µM: Cavia porcellus, read-out: Percentage inhibition (leukotriene C4 (LTC4) liberation inhibition). The method, then: Effect on generation of leukotriene C4 (LT) from sliced lung of guinea pig
An antiovalbumin guinea pig serum (1/10 dilution; 0.5 ml/100 g) was intravenously injected into a male Hartley guinea pig (300-350 g) for passive sensitization. 16 to 18 hr after the passive sensitization, the blood was removed by circulation of the Tyrode solution and the lung was extirpated. The extirpated lung was cut into small pieces having a size of 1 mm×1 mm×1 mm while cooling the lung with ice. The pieces were washed, and 150 mg of the pieces was suspended on 1.8 ml of the Tyrode solution, followed by incubation at 37° C. for 5 min. A 3 μM test compound (the compound of the present invention) solution was added thereto, followed by incubation for 10 min. An antigen solution (ovalbumin; a final concentration of 10 μg/ml) was added thereto, followed by incubation for additional 15 min. The mixture was filtered through a nylon mesh. 100 μl of the filtrate was subjected to determination of the amount of leukotriene C4 (LTC4) with an RzA kit.
The percentage leukotriene C4 (LTC4) liberation inhibition of each compound (indicated by compound No. used in the Examples which will be described later) is shown in Table 1.

Regarding `Cc1c(O)c(C)c2sc(N)nc2c1C` [Compound 8, 6-hydroxy-2-amino-4,5,7-trimethylbenzothiazole], the inhibition at 3 µM is 75%. On the same count and under the same terms, then `Cc1c(O)c(C(C)C)c2sc(N)nc2c1C` [Compound 9], with 36%; and `CC(C)c1cc2nc(N)sc2c(C(C)C)c1O` [Compound 10], with 78%; and `Nc1nc2cc(Br)c(O)c(Br)c2s1` [Compound 13], with 35%.

With `Nc1nc2c(cc(O)c3ncccc32)s1` [Compound 17], the inhibition at 3 µM was 35%.

With `Cc1ccc2sc(N)nc2c1O` [Compound 19], the inhibition at 3 µM turned out to be 36%. Still for that read-out and setting: then `Nc1nc2c(O)c(Cl)ccc2s1` [Compound 20], with 33%; and `Nc1nc2c(O)c(Br)cc(Br)c2s1` [Compound 21], with 48%; and `Cc1c(O)c(C(C)(C)C)cc2nc(N)sc12` [Compound 22], with 61%. Same read-out and setting: the figure for `Cc1c(O)c(C)c2sc(NCC(C)C)nc2c1C` [Compound 24] is 95%; for `Cc1c(O)c(C)c2sc(NCC3CCCCC3)nc2c1C` [Compound 25] it is 36%. Still for that read-out and setting: then `CCNc1nc2c(C)c(C)c(O)c(C)c2s1` [Compound 26], with 85%. For `Cc1c(O)c(C)c2sc(NCc3ccc(N(C)C)cc3)nc2c1C` [Compound 28], the inhibition at 3 µM was found to be 34%. On the same count and under the same terms, then `Cc1c(O)c(C)c2sc(NCc3ccc(NS(C)(=O)=O)cc3)nc2c1C` [Compound 29], with 43%. `Cc1c(O)c(C)c2sc(NCc3ccc(S(C)(=O)=O)cc3)nc2c1C` [Compound 30]: the inhibition at 3 µM amounted to 79%.

On to `Cc1c(O)c(C)c2sc(NCc3ccc(S(=O)(=O)N(CCO)CCO)cc3)nc2c1C` [Compound 31], for which the inhibition at 3 µM was determined as 62%. For the compound `CCN(CC)S(=O)(=O)c1ccc(CNc2nc3c(C)c(C)c(O)c(C)c3s2)cc1` [Compound 32], the inhibition at 3 µM amounted to 44%. For the compound `Cc1c(O)c(C)c2sc(NCc3ccc(S(=O)(=O)NCCO)cc3)nc2c1C` [Compound 33], the inhibition at 3 µM was 46%. Same read-out and setting: then `Cc1c(O)c(C)c2sc(NCc3ccc(S(N)(=O)=O)cc3)nc2c1C` [Compound 34, 6-hydroxy-2-(4-sulfamoylbenzylamino)-4,5,7-trimethyl-benzothiazole], with 70%.

Regarding `CCN(Cc1ccc(S(N)(=O)=O)cc1)c1nc2c(C)c(C)c(O)c(C)c2s1` [Compound 35], the inhibition at 3 µM is 68%.

With `CC(C)c1cc2nc(NCc3ccc(S(N)(=O)=O)cc3)sc2c(C(C)C)c1O` [Compound 37], the inhibition at 3 µM was determined as 39%.

With `CCN(Cc1ccc(S(N)(=O)=O)cc1)c1nc2cc(C(C)C)c(O)c(C(C)C)c2s1` [Compound 40], the inhibition at 3 µM was determined as 32%.

Regarding `Cc1c(O)c(C)c2sc(NC(=O)c3cccnc3)nc2c1C` [Compound 51], the inhibition at 3 µM came to 56%. For the compound `Cc1c(O)c(C)c2sc(NC(=O)C3CCCCC3)nc2c1C` [Compound 52], the inhibition at 3 µM came to 62%. On the same count and under the same terms, then `CC(=O)Nc1nc2c(C)c(C)c(O)c(C)c2s1` [Compound 53], with 69%; and `Cc1c(O)c(C)c2sc(NC(=O)c3ccccc3)nc2c1C` [Compound 54], with 58%.

Take `Cc1c(O)c(C)c2sc(NC(=O)CN(C)C)nc2c1C` [Compound 57]: the inhibition at 3 µM is 42%.

With `Cc1c(O)c(C)c2sc(NC(=O)N(C)C)nc2c1C` [Compound 58], the inhibition at 3 µM was 64%.

On to `CCOC(=O)Nc1nc2c(C)c(C)c(O)c(C)c2s1` [Compound 59], for which the inhibition at 3 µM came to 71%. In the case of `CCOC(=O)C(=O)Nc1nc2c(C)c(C)c(O)c(C)c2s1` [Compound 60], the inhibition at 3 µM stood at 36%.

As to `Cc1c(O)c(C)c2sc(NC(=O)C(=O)O)nc2c1C` [Compound 61], the inhibition at 3 µM turned out to be 36%. `CCOC(=O)CCC(=O)Nc1nc2c(C)c(C)c(O)c(C)c2s1` [Compound 64]: the inhibition at 3 µM is 32%.

For the compound `CC(C)c1cc2nc(NC(=O)N(C)C)sc2c(C(C)C)c1O` [Compound 68], the inhibition at 3 µM worked out at 70%. Still for that read-out and setting: the figure for `Cc1c(O)c(C)c2sc(NS(C)(=O)=O)nc2c1C` [Compound 69] is 42%; for `Cc1c(O)c(C)c2sc(NS(=O)(=O)C(C)C)nc2c1C` [Compound 70] it is 30%. On the same count and under the same terms, then `Cc1c(O)c(C)c2sc(NS(=O)(=O)c3ccccc3)nc2c1C` [Compound 71], with 53%; and `CC(C)c1cc2nc(NS(=O)(=O)N(C)C)sc2c(C(C)C)c1O` [Compound 75], with 50%. The same measure, in the same setting: then `CC(C)c1c(O)c(C(C)C)c2sc(N)nc2c1Cl` [Compound 76], with 72%; and `NS(=O)(=O)c1ccc(CNc2nc3cc(Br)c(O)c(Br)c3s2)cc1` [Compound 86, 6-hydroxy-2-(4-sulfamoylbenzylamino)-5,7-dibromobenzothiazole], with 31%; and `NS(=O)(=O)c1ccc(CNc2nc3c(O)c(Br)cc(Br)c3s2)cc1` [Compound 87], with 32%.

As for `CCOC(=O)CCCNc1nc2c(C)c(C)c(O)c(C)c2s1` [Compound 88], the inhibition at 3 µM was determined as 79%. The same measure, in the same setting: then `Cc1c(O)c(C)c2sc(N3CCCC3=O)nc2c1C` [Compound 90], with 41%; and `Cc1c(O)c(C)c2sc(NCCCC(=O)NC3CCCCC3)nc2c1C` [Compound 91], with 53%. With `Cc1c(O)c(C)c2sc(N)nc2c1C` [Compound 92], the “Percentage inhibition (leukotriene C4 (LTC4) liberation inhibition)” value (3 µM) turned out to be 64%. For `CNc1nc2c(C)c(C)c(O)c(C)c2s1` [Compound 93], the inhibition at 3 µM was 83%. Still for that read-out and setting: the figure for `Cc1c(O)c(C)c2sc(N(C)C)nc2c1C` [Compound 94] is 79%; for `CCCCCNc1nc2c(C)c(C)c(O)c(C)c2s1` [Compound 95] it is 72%. On the same count and under the same terms, the figure for `CC(C)=CCNc1nc2c(C)c(C)c(O)c(C)c2s1` [Compound 96] is 77%; for `Cc1c(O)c(C)c2sc(Nc3ccc(O)cc3)nc2c1C` [Compound 98] it is 60%; for `COc1ccc(Nc2nc3c(C)c(C)c(O)c(C)c3s2)cc1` [Compound 99] it is 43%. For `Cc1c(O)c(C)c2sc(Nc3ccc(C(=O)O)cc3)nc2c1C` [Compound 101, 6-hydroxy-2-(4-carboxylphenylamino)-4,5,7-trimethylbenzothiazole], the inhibition at 3 µM was 37%. With `Cc1c(O)c(C)c2sc(Nc3ccc(S(N)(=O)=O)cc3)nc2c1C` [Compound 103], the inhibition at 3 µM was 48%. With `Cc1c(O)c(C)c2sc(Nc3cc(Cl)c(O)c(Cl)c3)nc2c1C` [Compound 106], the inhibition at 3 µM came out at 49%. Still for that read-out and setting: then `Cc1c(O)c(C)c2sc(Nc3ccc(CCC(=O)O)cc3)nc2c1C` [Compound 108], with 30%; and `COc1c(O)c(C)c2sc(N)nc2c1OC` [Compound 110], with 41%. Still for that read-out and setting: then `CC(C)c1cc2nc(Nc3ccc(C(=O)O)cc3)sc2c(C(C)C)c1O` [Compound 113, 6-hydroxy-2-(4-carboxylphenylamino)-5,7-diisopropylbenzothiazole], with 49%; and `CC(C)c1cc2nc(Nc3ccccc3)sc2c(C(C)C)c1O` [Compound 115], with 39%; and `CC(C)c1cc2nc(Nc3ccc(S(N)(=O)=O)cc3)sc2c(C(C)C)c1O` [Compound 122], with 34%. Still for that read-out and setting: then `CC(C)c1cc2nc(N(CCO)CCO)sc2c(C(C)C)c1O` [Compound 123], with 71%; and `CC(C)c1cc2nc(N3CCOCC3)sc2c(C(C)C)c1O` [Compound 124], with 72%. On to `CC(C)c1cc2nc(NCc3ccccn3)sc2c(C(C)C)c1O` [Compound 126, 6-hydroxy-2-(2-pyridylmethylamino)-5,7-diisopropylbenzothiazole], for which the inhibition at 3 µM came out at 66%. Same read-out and setting: then `CC(C)c1cc2nc(N3CCC(O)CC3)sc2c(C(C)C)c1O` [Compound 128], with 60%; and `Cc1c(O)c(C)c2sc(NCc3ccccc3)nc2c1C` [Compound 134], with 88%. Still for that read-out and setting: the figure for `Cc1c(O)c(C)c2sc(NCc3ccc(C(=O)O)cc3)nc2c1C` [Compound 135] is 41%. Same read-out and setting: the figure for `COC(=O)c1ccc(CNc2nc3c(C)c(C)c(O)c(C)c3s2)cc1` [Compound 136] is 67%; for `Cc1c(O)c(C)c2sc(NCc3ccc(Cl)cc3Cl)nc2c1C` [Compound 137] it is 40%.

Regarding `Cc1c(O)c(C)c2sc(NCc3ccc(C(N)=O)cc3)nc2c1C` [Compound 141], the inhibition at 3 µM is 53%.

The values above are taken from patent US4929623A, “Benzothiazole derivative” (Eisai Co., Ltd., priority 1987, dated 1990).
